Measurements taken from patent US20230233565A1, “A TREATMENT APPROACH INVOLVING KIF18A INHIBITION FOR CHROMOSOMALLY UNSTABLE TUMORS” (UNIVERSITY OF VERMONT, priority 2020, published 2023).

Assays:
Assay type in all cases: cell-based
[1] = test system: MDA-MB-231 cells; assay: Mitotic spindle morphology analysis (multipolar spindles, centrioles, fixed cells)
Method: (§1) For experiments involving siRNA knockdown followed by drug treatment, the indicated concentrations of paclitaxel (Selleck Chemicals, Houston, Tex.), nocodazole (Selleck Chemicals, Houston, Tex.), and/or monastrol (Selleck Chemicals, Houston, Tex.) were added to cells 24 h after siRNA treatment. Three hours after drug addition, cells were either fixed and stained for immunofluorescence imaging or imaged live in a glass-bottom 24-well dish. To compare the effects of paclitaxel treatment to the effects of KIF18A KD in MDA-MB-231 and MCF10A cell lines, 10 nM of paclitaxel was added to cells 24 h before fixing and staining for immunofluorescence imaging.
Cells were grown on glass coverslips and fixed using either −20° C. methanol or 1% paraformaldehyde in −20° C. methanol. Cells were blocked with 20% goat serum in antibody diluting buffer (Abdil—TBS, 1% BSA, 0.1% Triton X-100, and 0.1% sodium azide) and incubated with the following primary antibodies: mouse anti-α-tubulin (DM1α) 1:500 (Millipore Sigma, Burlington Mass.) for one hour at room temperature (RT), human anti-centromere antibody (ACA) 1:250 (Antibodies Incorporated) overnight at 4° C., rabbit anti-γ-tubulin 1:500 (Abcam, Cambridge, Mass.) for one hour at RT, mouse anti-γ-tubulin 1:500 for one hour at RT (Abcam, Cambridge, Mass.), rabbit anti-KIF18A 1:100 (Bethyl Laboratories, Montgomery, Tex.) at 4° C. overnight, mouse anti-centrin-1 1:500 (Santa Cruz Biotechnology) for one hour at RT, and rabbit KIF18B 1:2000 (Shin et al., “Biased Brownian Motion as a Mechanism to Facilitate Nanometer-scale Exploration of the Microtubule Plus End by a Kinesin-8,” Proc National Acad Sci 112:E3826-35 (2015), which is hereby incorporated by reference in its entirety) for one hour at RT. Secondary antibodies conjugated to Alexa Fluor 488, 594, and 647 (Molecular Probes, Eugene, Oreg.) were used at concentrations of 1:15000 for one hour at RT. Coverslips were mounted onto glass slides using Prolong Gold anti-fade mounting medium with DAPI (Molecular Probes, Eugene, Oreg.).
(§2) To analyze mitotic spindle morphology, cells were fixed and stained for γ-tubulin, α-tubulin, and centrin-1. Enough optical slices spaced 200 nm apart were captured to visualize the entire 3-D structure of the spindle. Spindles with three or more visible microtubule-organizing centers were classified as multipolar. Cells were considered to have fragmented pericentriolar material (PCM) if they had supernumerary poles observed via γ-tubulin staining but lacked centrioles (centrin-1 puncta) at one or more of the poles. Intercentriolar distance, or the distance in microns between two centrioles in a pair, was measured from the center of one centriole to the center of the adjacent centriole.

[2] = test system: diploid MCF10A cells; assay: Mitotic index from fixed-cell images; conditions: 10 nM paclitaxel, 24 h
Method: as §1
(§3) To measure the length of mitosis, live cells were imaged every two minutes for 16-20 hours using differential interference contrast (DIC) microscopy. The time between nuclear envelope breakdown (NEB) and anaphase onset (AO) was used to indicate the time a cell spent in mitosis. Mitotic index was measured using fixed-cell images by counting the number of mitotic cells divided by the total number of cells. All mitotic index fields were taken with a 40×objective. An unpaired t-test was used to determine statistical significance between control and KIF18A KD conditions for each cell line.

[3] = test system: diploid MCF10A cells; assay: Mitotic spindle morphology analysis (multipolar spindles, fixed cells); conditions: 10 nM paclitaxel, 24 h
Method: as §1, §2

[4] = test system: MDA-MB-231 cells; assay: Live imaging with siR-tubulin (spindle pole splitting); conditions: UMK57 in KIF18A KD cells
Method: Cells were plated in a glass-bottom 24-well dish and treated with the indicated siRNA approximately 24 hours before imaging. Six hours before imaging, the cell culture media was replaced with CO2-independent media containing […] SiR-tubulin (Cytoskeleton). For conditions involving UMK57 or DMSO, the specified drug was added to the CO2-independent media with siR-tubulin. Cells were imaged every 2 minutes for 16-20 hours using a 40×0.75 NA objective (Nikon).

[5] = test system: MDA-MB-231 cells; assay: Kinetic cell proliferation assay, siRNA plus UMK57 or DMSO
Method: HT29, LoVo, SW480, LS1034, HCC1806, HCT116, MCF10A, MDA-MB-231, and MDA-MB-468 cells were purchased from ATCC (Manassas, Va.). All cell lines were validated by STR DNA fingerprinting using the Promega GenePrint® 10 System according to manufacturer's instructions (Promega #B9510). HT29, LoVo, SW480, MDA-MB-231, and MDA-MB-468 cells were cultured in DMEM/F-12 medium (Gibco) supplemented with 10% FBS (Gibco) and 1% penicillin/streptomycin (pen/strep). LS1034 and HCC1806 cells were cultured in RPMI 1640 medium (Gibco) with 10% FBS and 1% pen/strep. […]
Cells were imaged in either a 96- or 24-well dish every two or four hours for up to five days using the Cytation 5 Cell Imaging Multi-Mode Reader (Biotek, Winooski, Vt.) driven by Gen5 software (Biotek, Winooski, Vt.). […] Between imaging reads, cells were incubated at 37° C. with 5% CO2 using the Biospa 8 Automated Incubator (Biotek, Winooski, Vt.). […] To determine rates of cell proliferation, the fold change in cells/mm^2 between the first and last reads of each well were calculated and normalized to the control for each experiment. […] For cytotoxicity assays, CellTox™ Green Dye (Promega, Madison, Wis.) was added to cell media prior to imaging, and the number of cells/mm^2 was recorded for both GFP and brightfield channels. […]

[6] = test system: MDA-MB-231 cells; assay: Mitotic index from fixed-cell images; conditions: 500 nM UMK57 in KIF18A-depleted cells, versus DMSO
Method: as §1, §3

Compound: COC(=O)Nc1nc2ccc(C(=O)c3cccs3)cc2[nH]1 [nocodazole]
- multipolar spindles in KIF18A KD cells ([1]; 5 μM nocodazole for 3 h, versus DMSO): significantly fewer multipolar spindles

Compound: CC(=O)O[C@H]1C(=O)[C@@]2(C)[C@H]([C@H](OC(=O)c3ccccc3)[C@]3(O)C[C@H](OC(=O)[C@H](O)[C@@H](NC(=O)c4ccccc4)c4ccccc4)C(C)=C1C3(C)C)[C@]1(OC(C)=O)CO[C@@H]1C[C@@H]2O [paclitaxel]
- multipolar spindles in KIF18A KD cells ([1]; 20 nM paclitaxel for 3 h, versus DMSO): significantly fewer multipolar spindles
- mitotic defects (mitotic index, multipolar spindles) ([1]; MDA-MB-231, KIF18A KD versus 10 nM paclitaxel (24 h)): produced similar mitotic defects
- mitotic index [2]: increased the mitotic index
- multipolar spindles [3]: increased

Compound: Cc1ccc(-c2csc3ncnc(N4CCCC4)c23)cc1 [UMK57]
- spindle pole splitting [4]: increased spindle pole splitting
- percentage of multipolar spindles ([1]; 500 nM UMK57 in KIF18A KD cells, versus DMSO): small but significant increase in multipolar spindles
- chromosome alignment defects in bipolar spindles ([1]; UMK57 in KIF18A KD cells): without an obvious change in chromosome alignment defects
- proliferation ([5]; 500 nM UMK57 in KIF18A-depleted cells, versus DMSO): decreased proliferation
- proliferation ([5]; 500 nM UMK57 in control siRNA-treated cells): no impact on the proliferation
- mitotic index [6]: increased
